In brackets after ≈: the same amount, converted by molar mass.
Assays:
[1] = tested on: Mycobacterium tuberculosis; test: Inhibitory activity against Mycobacterium tuberculosis H37Rv; format: functional
[2] = biological target: T1, 3-oxoacyl-[acyl-carrier-protein] synthase 2 (Mycobacterium tuberculosis, UniProt P9WQD7); test: Inhibitory activity against KasB from Mycobacterium tuberculosis H37Rv
T1 sequence (P9WQD7 whole entry): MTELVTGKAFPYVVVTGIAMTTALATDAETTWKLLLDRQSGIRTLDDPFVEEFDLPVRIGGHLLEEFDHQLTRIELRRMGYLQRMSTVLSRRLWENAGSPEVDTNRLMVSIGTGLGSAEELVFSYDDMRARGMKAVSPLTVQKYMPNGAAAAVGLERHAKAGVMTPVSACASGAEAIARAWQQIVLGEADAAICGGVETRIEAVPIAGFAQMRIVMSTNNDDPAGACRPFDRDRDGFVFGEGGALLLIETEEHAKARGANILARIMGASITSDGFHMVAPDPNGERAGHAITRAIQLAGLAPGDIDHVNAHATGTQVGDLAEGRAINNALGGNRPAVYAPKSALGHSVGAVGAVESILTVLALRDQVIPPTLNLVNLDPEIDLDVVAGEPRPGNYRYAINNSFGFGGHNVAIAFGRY

wild-type apo-KasA = wild-type apo-KasA (Mycobacterium tuberculosis, UniProt P9WQD9); test: Inhibitory activity against KasA from Mycobacterium tuberculosis H37Rv
[3] = biological target: T2, 3-oxoacyl-[acyl-carrier-protein] synthase 1 (Escherichia coli K-12, UniProt P0A953); test: Inhibitory activity against FabB from Escherichia coli ANSI
T2 sequence (P0A953 whole entry): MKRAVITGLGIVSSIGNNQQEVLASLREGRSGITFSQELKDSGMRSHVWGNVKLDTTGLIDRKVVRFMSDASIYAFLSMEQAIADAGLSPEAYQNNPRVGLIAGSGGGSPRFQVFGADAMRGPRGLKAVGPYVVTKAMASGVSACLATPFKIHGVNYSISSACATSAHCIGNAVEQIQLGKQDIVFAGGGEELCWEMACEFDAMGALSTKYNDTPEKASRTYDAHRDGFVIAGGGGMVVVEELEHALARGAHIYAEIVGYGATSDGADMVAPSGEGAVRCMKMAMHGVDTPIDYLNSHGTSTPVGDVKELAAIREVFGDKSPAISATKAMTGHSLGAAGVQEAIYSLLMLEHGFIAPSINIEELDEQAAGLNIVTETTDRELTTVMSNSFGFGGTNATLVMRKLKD

Escherichia coli = test: Inhibitory activity against Escherichia coli ANSI; format: functional
[4] = biological target: T3, 3-oxoacyl-[acyl-carrier-protein] synthase 3 (Escherichia coli, UniProt C3TDZ2); test: Inhibitory activity against FabH from Escherichia coli ANSI
T3 sequence (C3TDZ2 whole entry): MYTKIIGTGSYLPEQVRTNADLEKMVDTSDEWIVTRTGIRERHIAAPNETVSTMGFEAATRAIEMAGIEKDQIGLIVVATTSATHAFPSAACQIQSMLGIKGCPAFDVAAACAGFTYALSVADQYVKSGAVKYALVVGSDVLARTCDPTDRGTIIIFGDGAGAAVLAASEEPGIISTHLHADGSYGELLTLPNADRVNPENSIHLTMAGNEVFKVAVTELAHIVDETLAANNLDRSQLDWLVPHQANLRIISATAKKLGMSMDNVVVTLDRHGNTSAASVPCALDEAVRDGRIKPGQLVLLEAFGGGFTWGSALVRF

[5] = biological target: T4, Mycobacterial beta-ketoacyl-[acyl-carrier-protein] synthase III (Mycobacterium tuberculosis, UniProt P9WNG3); test: Inhibitory activity against FabH from Mycobacterium tuberculosis H37Rv
T4 sequence (P9WNG3 whole entry): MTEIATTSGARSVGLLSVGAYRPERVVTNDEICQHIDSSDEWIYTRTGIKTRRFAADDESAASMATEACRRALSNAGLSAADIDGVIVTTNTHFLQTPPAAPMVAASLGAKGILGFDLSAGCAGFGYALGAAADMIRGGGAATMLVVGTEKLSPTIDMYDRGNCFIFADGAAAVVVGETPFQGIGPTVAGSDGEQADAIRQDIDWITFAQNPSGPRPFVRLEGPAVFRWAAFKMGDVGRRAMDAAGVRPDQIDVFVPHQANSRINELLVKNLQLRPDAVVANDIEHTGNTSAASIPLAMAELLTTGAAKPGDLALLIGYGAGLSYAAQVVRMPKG

Sequence of wild-type apo-KasA (P9WQD9 whole entry, looked up): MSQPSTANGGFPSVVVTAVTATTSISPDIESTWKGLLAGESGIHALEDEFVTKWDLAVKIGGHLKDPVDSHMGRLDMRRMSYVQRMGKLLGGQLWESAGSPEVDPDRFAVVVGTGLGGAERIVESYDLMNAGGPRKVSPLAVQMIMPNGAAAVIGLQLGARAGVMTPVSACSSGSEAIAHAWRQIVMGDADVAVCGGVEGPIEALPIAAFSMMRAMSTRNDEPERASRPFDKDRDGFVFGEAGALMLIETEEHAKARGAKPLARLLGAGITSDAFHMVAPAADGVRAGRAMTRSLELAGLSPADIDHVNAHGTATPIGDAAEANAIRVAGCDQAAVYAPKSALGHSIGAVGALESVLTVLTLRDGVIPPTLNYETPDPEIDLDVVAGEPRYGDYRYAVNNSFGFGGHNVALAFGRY

Structure (SMILES)	MIC [1]	IC50 [2]	IC50 (wild-type apo-KasA)	IC50 [3]	MIC (Escherichia coli)	IC50 [4]	IC50 [5]
CCCCCCCCCCCCCCCCCCCCC1(C)SC(O)=C(C)C1=O (stereo unspecified)	> 1000 µM						
CCCCCCCC1(C)SC(O)=C(C)C1=O (stereo unspecified)	1000 µM (≈ 242 µg/mL)	> 1000 µM	> 1000 µM	> 1000 µM	200 µM (≈ 48.5 µg/mL)	> 1000 µM	> 1000 µM
CC1=C(O)C(C)(Cc2c(Cl)cccc2Cl)SC1=O (stereo unspecified)	500 µM (≈ 152 µg/mL)	> 1000 µM	> 1000 µM	> 1000 µM	> 1000 µM	> 1000 µM	> 1000 µM
CC1=C(O)C(C)(Cc2ccc(C)cc2)SC1=O (stereo unspecified)	> 1000 µM	> 1000 µM	> 1000 µM	> 1000 µM	> 1000 µM	> 1000 µM	> 1000 µM
C=CCCCCCCC1(C)SC(=O)C(C)=C1O (stereo unspecified)	500 µM (≈ 127 µg/mL)	> 1000 µM	> 1000 µM	> 1000 µM	200 µM (≈ 50.9 µg/mL)	> 1000 µM	> 1000 µM
C=C/C(C)=C/[C@@]1(C)SC(=O)C(C)=C1O [THIOLACTOMYCIN]	62.5 µM (≈ 13.1 µg/mL)	6 µM		12 µM	6 µM (≈ 1.26 µg/mL)		
CC/C=C/CC1(C)SC(O)=C(C)C1=O (stereo unspecified)	> 1000 µM	> 1000 µM	> 1000 µM	> 1000 µM	> 1000 µM	> 1000 µM	> 1000 µM
CC1=C(O)C(C)(Cc2ccc([N+](=O)[O-])cc2)SC1=O (stereo unspecified)	> 1000 µM	> 1000 µM	> 1000 µM	> 1000 µM	> 1000 µM	> 1000 µM	> 1000 µM
COc1ccc(CC2(C)SC(O)=C(C)C2=O)cc1 (stereo unspecified)	> 1000 µM	> 1000 µM	> 1000 µM	> 1000 µM	> 1000 µM	> 1000 µM	> 1000 µM
CCCCCCCCCCCC1(C)SC(O)=C(C)C1=O (stereo unspecified)	500 µM (≈ 149 µg/mL)	> 1000 µM	> 1000 µM	> 1000 µM	25 µM (≈ 7.46 µg/mL)	> 100 µM	100 µM
CC1=C(O)C(C)(Cc2ccc(C(C)(C)C)cc2)SC1=O (stereo unspecified)	1000 µM (≈ 290 µg/mL)	> 1000 µM	> 1000 µM	> 1000 µM	> 1000 µM	> 1000 µM	> 100 µM
COc1cccc(CC2(C)SC(O)=C(C)C2=O)c1 (stereo unspecified)	> 1000 µM	> 1000 µM	> 1000 µM	> 1000 µM	> 1000 µM	> 1000 µM	> 1000 µM
CCCCCC(C)C1(C)SC(O)=C(C)C1=O (stereo unspecified)	1000 µM (≈ 242 µg/mL)	> 1000 µM	> 1000 µM	> 1000 µM	160 µM (≈ 38.8 µg/mL)	> 1000 µM	> 1000 µM
CC1=C(O)SC(C)(CCC(C)C)C1=O (stereo unspecified)	> 1000 µM	> 1000 µM	> 1000 µM	> 1000 µM	> 1000 µM	> 1000 µM	> 1000 µM
CCCCCCCCCCCCCCCCCCC1(C)SC(O)=C(C)C1=O (stereo unspecified)	> 1000 µM						
CC1=C(O)C(C)(Cc2cccc(C)c2)SC1=O (stereo unspecified)	1000 µM (≈ 248 µg/mL)	> 1000 µM	> 1000 µM	> 1000 µM	> 1000 µM	> 1000 µM	> 1000 µM
CC1=C(O)C(C)(Cc2cccc(Cl)c2)SC1=O (stereo unspecified)	1000 µM (≈ 269 µg/mL)	> 1000 µM	> 100 µM	> 1000 µM	> 1000 µM	> 1000 µM	> 1000 µM
CC1=C(O)SC(C)(C(C)c2ccccc2)C1=O (stereo unspecified)	> 1000 µM	> 1000 µM	> 1000 µM	> 1000 µM	> 1000 µM	> 1000 µM	> 1000 µM
